Measurements published in ChEMBL document CHEMBL4138276, “Hamigerans R and S: Nitrogenous Diterpenoids from the New Zealand Marine Sponge Hamigera tarangaensis” (J Nat Prod, 2018).
The source made the active and inactive calls. No cut-off for these calls is given here.

What follows are compounds tested on HL-60 (assay: Cytotoxicity against human HL60 cells assessed as inhibition of cell proliferation at <10 uM after 48 hrs by MTT assay).
Type: functional, cell-based

| Compound | inhibition |
| --- | --- |
| COC(=O)[C@@]1(O)C(=O)[C@]2(C)CC[C@H](C(C)C)[C@@H]2c2cc(C)cc(O)c21 | inactive |
| Cc1cc(O)c2c(c1)[C@H]1[C@@H](C(C)C)CC[C@@]1(C)C(=O)C2=O | inactive |
| COC(=O)c1c([C@H]2[C@@H](C(C)C)CC[C@@]2(C)CC(=O)O)cc(C)c(Br)c1O | inactive |
| Cc1cc(O)c2c(c1)[C@H]1[C@@H](C(C)C)CC[C@@]1(C)[C@@H](O)[C@H](O)C2=O | inactive |
| COC(=O)[C@]1(O)C(=O)c2c(O)c(Br)c(C)c(Br)c2[C@H]2[C@@H](C(C)C)CC[C@]21C | inactive |
| Cc1cc([C@H]2[C@@H](C(C)C)CC[C@@]2(C)CC(=O)O)c(C#N)c(O)c1Br | inactive |
| Cc1cc2c3c(c1Br)O[C@]14N[C@]3(Oc3c(Br)c(C)cc(c31)[C@H]1[C@@H](C(C)C)CC[C@@]1(C)CC4=O)C(=O)C[C@]1(C)CC[C@H](C(C)C)[C@H]21 | inactive |
